Activity calls are given as the source filed them. The rule behind the calls is not given here.
Tests used:
Type in all cases: functional
A549 [1] = experiment: Growth inhibition of human A549/ATCC cells assessed as cell growth at 10 uM by sulforhodamine B assay; details: read-out: Activity
CAKI-1 [2] = experiment: Growth inhibition of human CAKI-1 cells assessed as cell growth at 10 uM by sulforhodamine B assay; details: read-out: Activity
[3] = Growth inhibition of human NCI-ADR-RES cells assessed as growth inhibition at 10 uM by sulforhodamine B assay; details: read-out: GI
A549 [4] = experiment: Growth inhibition of human A549/ATCC cells assessed as growth inhibition at 10 uM by sulforhodamine B assay; details: read-out: GI
NCI-H226 = experiment: Growth inhibition of human NCI-H226 cells assessed as cell growth at 10 uM by sulforhodamine B assay; details: read-out: Activity
KM12 = experiment: Growth inhibition of human KM12 cells assessed as growth inhibition at 10 uM by sulforhodamine B assay; details: read-out: GI
UACC-257 = experiment: Growth inhibition of human UACC257 cells assessed as cell growth at 10 uM by sulforhodamine B assay; details: read-out: Activity
A498 = experiment: Growth inhibition of human A498 cells assessed as growth inhibition at 10 uM by sulforhodamine B assay
SK-MEL-28 [5] = experiment: Growth inhibition of human SK-MEL-28 cells assessed as growth inhibition at 10 uM by sulforhodamine B assay; details: read-out: GI
UO-31 = experiment: Growth inhibition of human UO31 cells assessed as growth inhibition at 10 uM by sulforhodamine B assay
SW-620 = experiment: Growth inhibition of human SW620 cells assessed as cell growth at 10 uM by sulforhodamine B assay; details: read-out: Activity
COLO 205 = experiment: Growth inhibition of human COLO205 cells assessed as cell growth at 10 uM by sulforhodamine B assay; details: read-out: Activity
MDA-MB-231 = experiment: Growth inhibition of human MDA-MB-231 cells assessed as growth inhibition at 10 uM by sulforhodamine B assay; details: read-out: GI
CCRF-CEM = experiment: Growth inhibition of human CCRF-CEM cells assessed as cell growth at 10 uM by sulforhodamine B assay; details: read-out: Activity
SF-295 = experiment: Growth inhibition of human SF295 cells assessed as growth inhibition at 10 uM by sulforhodamine B assay
MDA-MB-435 = experiment: Growth inhibition of human MDA-MB-435 cells assessed as growth inhibition at 10 uM by sulforhodamine B assay; details: read-out: GI
HCT-15 = experiment: Growth inhibition of human HCT15 cells assessed as cell growth at 10 uM by sulforhodamine B assay; details: read-out: Activity
NCI-H522 [6] = experiment: Growth inhibition of human NCI-H522 cells assessed as cell growth at 10 uM by sulforhodamine B assay; details: read-out: Activity
T47D = experiment: Growth inhibition of human T47D cells assessed as cell growth at 10 uM by sulforhodamine B assay; details: read-out: Activity
HCT-116 = experiment: Growth inhibition of human HCT116 cells assessed as growth inhibition at 10 uM by sulforhodamine B assay; details: read-out: GI
NCI-H23 = experiment: Growth inhibition of human NCI-H23 cells assessed as cell growth at 10 uM by sulforhodamine B assay; details: read-out: Activity
MDA-MB-468 [7] = experiment: Growth inhibition of human MDA-MB-468 cells assessed as growth inhibition at 10 uM by sulforhodamine B assay; details: read-out: GI
SK-OV-3 [8] = experiment: Growth inhibition of human SKOV3 cells assessed as cell growth at 10 uM by sulforhodamine B assay; details: read-out: Activity
BT-549 = experiment: Growth inhibition of human BT549 cells assessed as cell growth at 10 uM by sulforhodamine B assay; details: read-out: Activity
U-251 [9] = experiment: Growth inhibition of human U251 cells assessed as cell growth at 10 uM by sulforhodamine B assay; details: read-out: Activity
SN12C [10] = experiment: Growth inhibition of human SN12C cells assessed as growth inhibition at 10 uM by sulforhodamine B assay; details: read-out: GI
SK-MEL-28 [11] = experiment: Growth inhibition of human SK-MEL-28 cells assessed as cell growth at 10 uM by sulforhodamine B assay; details: read-out: Activity
SF-539 = experiment: Growth inhibition of human SF539 cells assessed as growth inhibition at 10 uM by sulforhodamine B assay; details: read-out: GI
TK-10 = experiment: Growth inhibition of human TK10 cells assessed as cell growth at 10 uM by sulforhodamine B assay; details: read-out: Activity
MCF7 = experiment: Growth inhibition of human MCF7 cells assessed as cell growth at 10 uM by sulforhodamine B assay; details: read-out: Activity
NCI-H522 [12] = experiment: Growth inhibition of human NCI-H522 cells assessed as growth inhibition at 10 uM by sulforhodamine B assay; details: read-out: GI
DU-145 [13] = experiment: Growth inhibition of human DU145 cells assessed as cell growth at 10 uM by sulforhodamine B assay; details: read-out: Activity
MOLT-4 = experiment: Growth inhibition of human MOLT4 cells assessed as growth inhibition at 10 uM by sulforhodamine B assay; details: read-out: GI
SN12C [14] = experiment: Growth inhibition of human SN12C cells assessed as cell growth at 10 uM by sulforhodamine B assay; details: read-out: Activity
HL-60(TB) = experiment: Growth inhibition of human HL-60(TB) cells assessed as cell growth at 10 uM by sulforhodamine B assay; details: read-out: Activity
SF-268 = experiment: Growth inhibition of human SF268 cells assessed as growth inhibition at 10 uM by sulforhodamine B assay; details: read-out: GI
DU-145 [15] = experiment: Growth inhibition of human DU145 cells assessed as growth inhibition at 10 uM by sulforhodamine B assay; details: read-out: GI
ACHN = experiment: Growth inhibition of human ACHN cells assessed as growth inhibition at 10 uM by sulforhodamine B assay; details: read-out: GI
SK-MEL-2 = experiment: Growth inhibition of human SK-MEL-2 cells assessed as cell growth at 10 uM by sulforhodamine B assay; details: read-out: Activity
OVCAR-5 = experiment: Growth inhibition of human OVCAR5 cells assessed as cell growth at 10 uM by sulforhodamine B assay; details: read-out: Activity
SK-OV-3 [16] = experiment: Growth inhibition of human SKOV3 cells assessed as growth inhibition at 10 uM by sulforhodamine B assay; details: read-out: GI
SNB-19 = experiment: Growth inhibition of human SNB19 cells assessed as growth inhibition at 10 uM by sulforhodamine B assay
HOP-62 = experiment: Growth inhibition of human HOP62 cells assessed as growth inhibition at 10 uM by sulforhodamine B assay; details: read-out: GI
U-251 [17] = experiment: Growth inhibition of human U251 cells assessed as growth inhibition at 10 uM by sulforhodamine B assay; details: read-out: GI
MDA-MB-468 [18] = experiment: Growth inhibition of human MDA-MB-468 cells assessed as cell growth at 10 uM by sulforhodamine B assay; details: read-out: Activity
NCI-H322M = experiment: Growth inhibition of human NCI-H322M cells assessed as cell growth at 10 uM by sulforhodamine B assay; details: read-out: Activity
786-0 = experiment: Growth inhibition of human 786-0 cells assessed as growth inhibition at 10 uM by sulforhodamine B assay
CAKI-1 [19] = experiment: Growth inhibition of human CAKI-1 cells assessed as growth inhibition at 10 uM by sulforhodamine B assay; details: read-out: GI
[20] = Growth inhibition of human Hs 578T cells assessed as cell growth at 10 uM by sulforhodamine B assay; details: read-out: Activity

CC1(C)C[C@@H](O)[C@]2(C(=O)O)CC[C@]3(C)C(=CC[C@@H]4[C@@]5(C)CC[C@H](O)C(C)(C)[C@@H]5CC[C@]43C)[C@@H]2C1
growth at 10 µM (A549 [1]): 87.5%
growth at 10 µM (CAKI-1 [2]): 91.8%
inhibition of growth at 10 µM [3]: < 10%
inhibition of growth at 10 µM (A549 [4]): 12.4%
growth at 10 µM (NCI-H226): 107%
inhibition of growth at 10 µM (KM12): < 10%
growth at 10 µM (UACC-257): 107%
inhibition of growth at 10 µM (A498; read-out: GI): < 10%
inhibition of growth at 10 µM (SK-MEL-28 [5]): < 10%
inhibition of growth at 10 µM (UO-31; read-out: GI): 13.9%
growth at 10 µM (SW-620): 109%
growth at 10 µM (COLO 205): 109%
inhibition of growth at 10 µM (MDA-MB-231): < 10%
growth at 10 µM (CCRF-CEM): 88.4%
inhibition of growth at 10 µM (SF-295; read-out: GI): < 10%
inhibition of growth at 10 µM (MDA-MB-435): < 10%
growth at 10 µM (HCT-15): 96.5%
growth at 10 µM (NCI-H522 [6]): 95.3%
growth at 10 µM (T47D): 93%
inhibition of growth at 10 µM (HCT-116): 17.3%
growth at 10 µM (NCI-H23): 102%
inhibition of growth at 10 µM (MDA-MB-468 [7]): 88.8%
growth at 10 µM (SK-OV-3 [8]): 101%
growth at 10 µM (BT-549): 90.3%
growth at 10 µM (U-251 [9]): 91.8%
inhibition of growth at 10 µM (SN12C [10]): 16.6%
growth at 10 µM (SK-MEL-28 [11]): 95.6%
inhibition of growth at 10 µM (SF-539): < 10%
growth at 10 µM (TK-10): 99.7%
growth at 10 µM (MCF7): 96.4%
inhibition of growth at 10 µM (NCI-H522 [12]): < 10%
growth at 10 µM (DU-145 [13]): 103%
inhibition of growth at 10 µM (MOLT-4): 21.7%
growth at 10 µM (SN12C [14]): 89.5%
growth at 10 µM (HL-60(TB)): 82%
inhibition of growth at 10 µM (SF-268): < 10%
inhibition of growth at 10 µM (DU-145 [15]): < 10%
inhibition of growth at 10 µM (ACHN): < 10%
growth at 10 µM (SK-MEL-2): 97.9%
growth at 10 µM (OVCAR-5): 119%
inhibition of growth at 10 µM (SK-OV-3 [16]): < 10%
inhibition of growth at 10 µM (SNB-19; read-out: GI): < 10%
inhibition of growth at 10 µM (HOP-62): < 10%
inhibition of growth at 10 µM (U-251 [17]): < 10%
growth at 10 µM (MDA-MB-468 [18]): 111%
growth at 10 µM (NCI-H322M): 99%
inhibition of growth at 10 µM (786-0; read-out: GI): 13.8%
inhibition of growth at 10 µM (CAKI-1 [19]): 15.2%
growth at 10 µM [20]: 102%

C/C=C(/C)C(=O)O[C@@H]1CC(C)(C)C[C@H]2C3=CC[C@@H]4[C@@]5(C)CC[C@H](O)C(C)(C)[C@@H]5CC[C@@]4(C)[C@]3(C)CC[C@@]12C(=O)O [Reduced Lantadene A]
growth at 10 µM (A549 [1]): 27.4%
growth at 10 µM (CAKI-1 [2]): 29.5%
inhibition of growth at 10 µM [3]: 30.2%
inhibition of growth at 10 µM (A549 [4]): 72.6%
growth at 10 µM (NCI-H226): 42.1%
inhibition of growth at 10 µM (KM12): 78.3%
growth at 10 µM (UACC-257): 60.6%
growth inhibition (GI) (A498): Active
inhibition of growth at 10 µM (SK-MEL-28 [5]): 66.3%
growth inhibition (GI) (UO-31): Active
growth at 10 µM (SW-620): 39.1%
growth at 10 µM (COLO 205): 28.2%
inhibition of growth at 10 µM (MDA-MB-231): 77.8%
growth at 10 µM (CCRF-CEM): 45.8%
growth inhibition (GI) (SF-295): Active
inhibition of growth at 10 µM (MDA-MB-435): 35.1%
growth at 10 µM (HCT-15): 21.2%
growth at 10 µM (NCI-H522 [6]): 49.7%
growth at 10 µM (T47D): 75.7%
inhibition of growth at 10 µM (HCT-116): 80%
growth at 10 µM (NCI-H23): 64.7%
inhibition of growth at 10 µM (MDA-MB-468 [7]): 33.9%
growth at 10 µM (SK-OV-3 [8]): 41.8%
growth at 10 µM (BT-549): 26.1%
growth at 10 µM (U-251 [9]): 38.2%
inhibition of growth at 10 µM (SN12C [10]): 94.2%
growth at 10 µM (SK-MEL-28 [11]): 33.7%
inhibition of growth at 10 µM (SF-539): 57%
growth at 10 µM (TK-10): 66.8%
growth at 10 µM (MCF7): 61%
inhibition of growth at 10 µM (NCI-H522 [12]): 50.3%
growth at 10 µM (DU-145 [13]): 74.9%
inhibition of growth at 10 µM (MOLT-4): 58.6%
growth at 10 µM (SN12C [14]): 5.77%
growth at 10 µM (HL-60(TB)): -50.8%
inhibition of growth at 10 µM (SF-268): 74.1%
inhibition of growth at 10 µM (DU-145 [15]): 25.1%
inhibition of growth at 10 µM (ACHN): 91.9%
growth at 10 µM (SK-MEL-2): 54.1%
growth at 10 µM (OVCAR-5): 64%
inhibition of growth at 10 µM (SK-OV-3 [16]): 58.2%
growth inhibition (GI) (SNB-19): Active
inhibition of growth at 10 µM (HOP-62): 75.7%
inhibition of growth at 10 µM (U-251 [17]): 61.8%
growth at 10 µM (MDA-MB-468 [18]): 66.1%
growth at 10 µM (NCI-H322M): -8.43%
growth inhibition (GI) (786-0): Active
inhibition of growth at 10 µM (CAKI-1 [19]): 70.5%
growth at 10 µM [20]: -17.2%

Source: ChEMBL document CHEMBL2413072, “Synthesis and in vitro anticancer studies of novel C-2 arylidene congeners of lantadenes” (2013)
